This is an account of results in US9757379B2, “Inhibition of HIF-2α heterodimerization with HIF1β (ARNT)” (The Board of Regents of the University of Texas System, priority 2012, dated 2017).

For one assay, the target named is HIF-2α PAS-B (Homo sapiens, UniProt Q99814). Description: Isothermal titration calorimetry (ITC) on HIF-2α PAS-B. (In general: In ITC the heat of successive injections is recorded.)
In assay [1] the target is HIF-2α PAS-B*/ARNT PAS-B* heterodimer (Homo sapiens, UniProt Q99814, R247E). The assay is described as follows: AlphaScreen, HIF-2α PAS-B*/ARNT PAS-B* heterodimerization.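 Further: GST-tagged HIF-2α PAS-B* and FLAG-tagged ARNT PAS-B* with glutathione donor and anti-FLAG acceptor beads, luminescence after 680 nm excitation, loss of signal indicating disrupted heterodimer.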
Sequence of HIF-2α PAS-B*/ARNT PAS-B* heterodimer (Q99814 240-350 R247E, one chain of several): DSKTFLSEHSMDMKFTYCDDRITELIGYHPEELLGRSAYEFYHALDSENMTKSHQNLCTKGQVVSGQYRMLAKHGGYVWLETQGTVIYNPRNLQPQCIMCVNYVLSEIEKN
From the text: (FIG. 8a) As shown in the cartoon schematic, interactions between GST-tagged HIF-2α (green) and FLAG-tagged ARNT (blue) PAS-B* domains recruit both donor beads (D), coated with glutathione, and acceptor beads (A), coated with anti-FLAG antibodies, to one another. Upon illumination with red (680 nm) light, donor beads will generate short-lived singlet oxygen (^1O2). Nearby (<200 nm) acceptor beads can react with ^1O2 to emit light at shorter wavelengths (top). Compounds that disrupt the complex correspondingly eliminate this signal (bottom). Compounds that non-specifically interfere with the AlphaScreen assay can be identified with a counterscreen in which the ARNT PAS-B* domain was simultaneously tagged with both the GST and FLAG tags. (FIG. 8b) The AlphaScreen signal (relative units; RU) reflecting protein-protein interactions between 25 (open triangles), 50 (open circles) or 100 (closed circles) nM HIF-2α PAS-B* increases with increasing concentrations of ARNT PAS-B*. At the highest ARNT PAS-B* concentrations, a decrease in signal reflects the hook effect. At these concentrations, protein binding to the acceptor beads has become saturated and free ARNT PAS-B* competes with the coated acceptor beads for the donor beads bound to HIF-2α PAS-B*. […] Assays were performed in triplicate and the error bars represent±SD.
Inhibition of heterodimerization of HIF-2α to HIF1β (ARNT) may be determined in an Amplified Luminescent Proximity Homogeneous Assay (AlphaScreen).
The AlphaScreen assay can be done according to the following procedures: • 1. Prepare cold binding buffer solution: 20 mM Tris-Cl (pH=7.5), 100 mM NaCl, 1 mM DTT, 0.02% Tween-20 (final concentration) and place on ice to keep temperature approximately 4° C. • 2. Prepare Protein Mix: To a 50 mL conical tube add 23 mL of cold buffer and 0.04 mL of both GST-HIF2α PASB* (100 μM) and ARNT-PASB*-Flag (100 μM). • 3. Distribute to 96 well plate: Add 60 μL of protein mix to each wells. • 4. Adding Compound: Dissolve compounds in DMSO to obtain a final concentration of 10 mM. Then create the appropriate dilutions for your particular compound in glass vials. Once all the dilutions are ready place 1 μL of compound in each well. • 5. Prepare Bead mix: In the dark room using green light only create a tube with 3.84 mL of cold buffer and 3 μL of GST Donor beads and Flag acceptor beads. • 6. Distribute Bead mix: Invert the tube a couple times before distributing 40 μL of mix to each well. • 7. Incubation: After adding beads wrap the plate in tin foil twice and remove the covered plate from dark room. Incubate the plate at room temperature while rocking gently for 4 hours. • 8. Read: After 4 hours place the uncovered plate in the plate reader. Make sure the room is relatively tree of white light when placing the plate in the machine. It is ok to have the green light on if needed. • 9. […] Flag acceptor beads should be aliquoted into small opaque tubes (20-50 μl per tube) upon arrival from the manufacturer. Place both sets of beads in 4° C. storage when not in use. • 11. Avoid expose beads to white light. • 12. Pipette beads up and down several times before adding to a tube of cold buffer solution. • 13. Amount of Beads used for Bead mix may vary from batch to batch.
In the next assay the target is GST-ARNT-PAS-B*-FLAG (Homo sapiens, UniProt P27540, E362R). Description: AlphaScreen control reaction with doubly tagged protein. Conditions: single doubly tagged protein. Format: biochemical. For orientation: In Alpha technology, singlet oxygen from a donor bead excites a nearby acceptor bead.
Sequence of GST-ARNT-PAS-B*-FLAG (P27540 355-470 E362R): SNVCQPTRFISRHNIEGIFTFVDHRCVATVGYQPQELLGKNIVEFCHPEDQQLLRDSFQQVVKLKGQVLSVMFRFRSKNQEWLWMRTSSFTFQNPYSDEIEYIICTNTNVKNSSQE

Usually Kd stands for the equilibrium constant for the complex coming apart. The term IC50 denotes the concentration that inhibits the measured activity by half. A higher IC50 goes with lower potency.

Molecules are shown by their SMILES. Read-outs that look alike come from different tables or passages of the source.
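Wherever Kd is given: Wild-type protein (200 µM) titrated into 5-10 µM compound, heats of dilution from a compound-free titration subtracted, isotherms fit to a single-site model.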

Sequence of HIF-2α PAS-B (Q99814 240-350): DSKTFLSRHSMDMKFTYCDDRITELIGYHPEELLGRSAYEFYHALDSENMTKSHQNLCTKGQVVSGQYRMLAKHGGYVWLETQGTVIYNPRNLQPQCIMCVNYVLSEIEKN
From the text for GST-ARNT-PAS-B*-FLAG: Upon illumination with red (680 nm) light, donor beads will generate short-lived singlet oxygen (^1O2). Nearby (<200 nm) acceptor beads can react with ^1O2 to emit light at shorter wavelengths (top). Compounds that disrupt the complex correspondingly eliminate this signal (bottom). Compounds that non-specifically interfere with the AlphaScreen assay can be identified with a counterscreen in which the ARNT PAS-B* domain was simultaneously tagged with both the GST and FLAG tags. […] At these concentrations, protein binding to the acceptor beads has become saturated and free ARNT PAS-B* competes with the coated acceptor beads for the donor beads bound to HIF-2α PAS-B*. […] Assays were performed in triplicate and the error bars represent±SD.

`O=[N+]([O-])c1ccccc1Nc1cc(F)cc(Cl)c1` (racemic) [Compound 33] gave a Kd on HIF-2α PAS-B of 4300 nM.

For the compound `Fc1ccccc1[C@@H]1C[C@H](c2cccc(Br)c2)Nc2nnnn21` (racemic) [Compound 50, (+/−)-(cis)-5-(3-bromophenyl)-7-(2-fluorophenyl)-4,5,6,7-tetrahydrotetrazolo[1,5-a]pyrimidine], the Kd on HIF-2α PAS-B is 760 nM. The compound also displayed an IC50 in assay [1] of 700 nM.

As to `Clc1ccccc1[C@@H]1C[C@H](c2cccc(Br)c2)Nc2nnnn21` (racemic) [Compound 51, (+/−)-(cis)-5-(3-bromophenyl)-7-(2-chlorophenyl)-4,5,6,7-tetrahydrotetrazolo[1,5-a]pyrimidine], at HIF-2α PAS-B, the affinity, expressed as Kd, was 435 nM. In addition, in assay [1], it took 300 nM to reach half-maximal inhibition (IC50).

Regarding `Brc1cccc([C@H]2C[C@@H](c3ccccc3Br)n3nnnc3N2)c1` (racemic) [Compound 54, (+/−)-(cis)-7-(2-bromophenyl)-5-(3-bromophenyl)-4,5,6,7-tetrahydrotetrazolo[1,5-a]pyrimidine], binding at HIF-2α PAS-B was characterised by a dissociation constant (Kd) of 565 nM. The same compound displayed a concentration for half-maximal inhibition (IC50) in assay [1] of 200 nM.

As to `Brc1cccc([C@H]2C[C@@H](c3ccccc3I)n3nnnc3N2)c1` (racemic) [Compound 55, (+/−)-(cis)-5-(3-bromophenyl)-7-(2-iodophenyl)-4,5,6,7-tetrahydrotetrazolo[1,5-a]pyrimidine], the Kd at HIF-2α PAS-B stood at 862 nM. This compound displayed a half-maximal inhibitory concentration (IC50) in assay [1] of 600 nM.

As for `Clc1cccc([C@@H]2C[C@H](c3cccc(Br)c3)Nc3nnnn32)c1` (racemic) [Compound 56, (+/−)-(cis)-5-(3-bromophenyl)-7-(3-chlorophenyl)-4,5,6,7-tetrahydrotetrazolo[1,5-a]pyrimidine], binding on HIF-2α PAS-B was characterised by a dissociation constant (Kd) of 106 nM. Moreover, the half-maximal inhibitory concentration (IC50) in assay [1] is 200 nM.

As to `Fc1c(Cl)cccc1[C@@H]1C[C@H](c2cccc(Br)c2)Nc2nnnn21` (racemic) [Compound 59, (+/−)-(cis)-5-(3-bromophenyl)-7-(3-chloro-2-fluorophenyl)-4,5,6,7-tetrahydrotetrazolo[1,5-a]pyrimidine], the Kd at HIF-2α PAS-B came to 42 nM. For the same compound, in assay [1], the IC50 stood at 200 nM.

With `Fc1ccc(Cl)c(F)c1[C@@H]1C[C@H](c2cccc(Br)c2)Nc2nnnn21` (racemic) [Compound 61, (+/−)-(cis)-5-(3-bromophenyl)-7-(3-chloro-2,6-difluorophenyl)-4,5,6,7-tetrahydrotetrazolo[1,5-a]pyrimidine], the dissociation constant (Kd) at HIF-2α PAS-B is 32 nM. The compound further displayed an IC50 in assay [1] of 200 nM.

For `CC(C)C[C@@H]1C[C@H](c2cccc(Br)c2)Nc2nnnn21` (racemic) [Compound 64, (+/−)-(cis)-5-(3-bromophenyl)-7-isobutyl-4,5,6,7-tetrahydrotetrazolo[1,5-a]pyrimidine], at HIF-2α PAS-B, binding was put at a Kd of 930 nM.

In the case of `O=[N+]([O-])c1c(NCc2ccc(F)cc2Cl)ccc2nonc12` [Compound 2, N-(2-chloro-4-fluorobenzyl)-4-nitrobenzo[c][1,2,5]oxadiazol-5-amine], the dissociation constant (Kd) on HIF-2α PAS-B (read-out: ITC Kd) was found to be 500 nM. This compound displayed an IC50 in assay [1] of 330 nM.

As for `O=[N+]([O-])c1c(NCc2cc(F)ccc2F)ccc2nonc12` [Compound 3, N-(2,5-difluorobenzyl)-4-nitrobenzo[c][1,2,5]oxadiazol-5-amine], the Kd at HIF-2α PAS-B was more than 10000 nM. In assay [1], this compound yielded an IC50 of more than 10000 nM.

The compound `O=[N+]([O-])c1c(NCc2ccc(F)cc2C(F)(F)F)ccc2nonc12` [Compound 4, N-(4-fluoro-2-(trifluoromethyl)benzyl)-4-nitrobenzo[c][1,2,5]oxadiazol-5-amine] displayed a dissociation constant (Kd) on HIF-2α PAS-B of 520 nM. The half-maximal inhibitory concentration (IC50) in assay [1] was more than 30000 nM.

Take `O=[N+]([O-])c1c(Nc2cccc(Cl)c2)ccc2nonc12` [Compound 5, N-(3-chlorophenyl)-4-nitrobenzo[c][1,2,5]oxadiazol-5-amine]: the equilibrium dissociation constant (Kd) on HIF-2α PAS-B (read-out: ITC Kd) came out at 160 nM. 180 nM corresponded to half-maximal inhibition in assay [1] (IC50).

`O=[N+]([O-])c1c(Nc2cccc(C(F)(F)F)c2)ccc2nonc12` [Compound 6, 4-nitro-N-(3-(trifluoromethyl)phenyl)benzo[c][1,2,5]oxadiazol-5-amine]: the dissociation constant (Kd) on HIF-2α PAS-B (read-out: ITC Kd) turned out to be 640 nM. The compound further came in with an IC50 in assay [1] of 460 nM.

As to `O=[N+]([O-])c1c(Nc2ccc(Br)c(F)c2)ccc2nonc12` [Compound 7], the dissociation constant Kd at HIF-2α PAS-B turned out to be 220 nM. The compound also yielded an IC50 in assay [1] of 150 nM.

Take `O=[N+]([O-])c1c(Nc2cccc(Cl)c2F)ccc2nonc12` [Compound 8, N-(3-chloro-2-fluorophenyl)-4-nitrobenzo[c][1,2,5]oxadiazol-5-amine]: at HIF-2α PAS-B (read-out: ITC Kd), the Kd was found to be 1100 nM. Further, the IC50 in assay [1] was 760 nM.

Compound `O=[N+]([O-])c1c(Nc2ccc(Cl)c(C(F)(F)F)c2)ccc2nonc12` [Compound 9, N-(4-chloro-3-(trifluoromethyl)phenyl)-4-nitrobenzo[c][1,2,5]oxadiazol-5-amine] had a dissociation constant Kd at HIF-2α PAS-B of 260 nM. For the same compound, in assay [1], 90 nM corresponded to half-maximal inhibition (IC50).

Take `O=[N+]([O-])c1c(Nc2cc(F)cc(C(F)(F)F)c2)ccc2nonc12` [Compound 10, N-(3-fluoro-5-(trifluoromethyl)phenyl)-4-nitrobenzo[c][1,2,5]oxadiazol-5-amine]: the dissociation constant (Kd) at HIF-2α PAS-B (read-out: ITC Kd) is 370 nM. In addition, the IC50 in assay [1] was 430 nM.

`O=[N+]([O-])c1c(Nc2cc(F)cc(F)c2)ccc2nonc12` [Compound 11, N-(3,5-difluorophenyl)-4-nitrobenzo[c][1,2,5]oxadiazol-5-amine] registered a Kd on HIF-2α PAS-B of 2100 nM. This compound returned an IC50 in assay [1] of more than 1000 nM.

`O=[N+]([O-])c1c(Nc2ccc(Cl)c(Cl)c2)ccc2nonc12` [Compound 12, N-(3,4-dichlorophenyl)-4-nitrobenzo[c][1,2,5]oxadiazol-5-amine]: on HIF-2α PAS-B (read-out: ITC Kd), the Kd is 170 nM. Moreover, the 50% inhibitory concentration (IC50) in assay [1] amounted to 120 nM.

Take `O=[N+]([O-])c1c(NCc2ccccc2)ccc2nonc12` [Compound 17]: in assay [1], the half-maximal inhibitory concentration (IC50) was more than 5000 nM.

Turning to `Cc1ccc(CNc2ccc3nonc3c2[N+](=O)[O-])cc1` [Compound 18], in assay [1], the IC50 was more than 10000 nM.

In assay [1], `O=[N+]([O-])c1c(NCc2ccc(Cl)cc2)ccc2nonc12` [Compound 19] gave an IC50 of more than 5000 nM.

Regarding `O=[N+]([O-])c1c(NCc2cc(F)cc(Cl)c2)ccc2nonc12` [Compound 21], the Kd on HIF-2α PAS-B (read-out: ITC Kd) stood at 2000 nM.

With `O=[N+]([O-])c1c(NCc2cc(F)ccc2C(F)(F)F)ccc2nonc12` [Compound 22], the IC50 in assay [1] is more than 30000 nM.

For `COc1cccc(Nc2ccc3nonc3c2[N+](=O)[O-])c1` [Compound 23], the 50% inhibitory concentration (IC50) in assay [1] is more than 10000 nM.

`O=[N+]([O-])c1cccc(Nc2ccc3nonc3c2[N+](=O)[O-])c1` [Compound 27]: the Kd at HIF-2α PAS-B was 4300 nM.

In the case of `O=[N+]([O-])c1c(Nc2cccc(F)c2)ccc2nonc12` [Compound 28], the equilibrium dissociation constant (Kd) at HIF-2α PAS-B was 2100 nM.

`O=[N+]([O-])c1cc(Nc2ccc3nonc3c2[N+](=O)[O-])ccc1Cl` [Compound 32]: the “Effect on AlphaScreen signal of control reaction” value at GST-ARNT-PAS-B*-FLAG is listed as “No effect”. For the same compound, the Kd at HIF-2α PAS-B (read-out: ITC Kd) is 1100 nM. In assay [1], the half-inhibitory concentration (IC50) was determined as 200 nM. Further, the “Effect on HIF-2α/ARNT PAS-B* heterodimerization in AlphaScreen” value in assay [1] (triplicate) is reported as “antagonizes HIF-2α/ARNT PAS-B* heterodimerization”.

Turning to `O=[N+]([O-])c1c(Nc2cc(F)cc(Cl)c2)ccc2nn[nH]c12` [Compound 34], in assay [1], the 50% inhibitory concentration (IC50) is more than 10000 nM.

`O=[N+]([O-])c1c(Nc2cc(F)cc(Cl)c2)ccc2[nH]cnc12` [Compound 35]: the half-maximal inhibitory concentration (IC50) in assay [1] is more than 5000 nM.

At HIF-2α PAS-B, `Fc1cc(Cl)cc(Nc2ccc3nonc3c2)c1` [Compound 38] had an equilibrium dissociation constant (Kd) of approximately 3000 nM.

Consider `Nc1c(Nc2cc(F)cc(Cl)c2)ccc2nonc12` [Compound 39], for which the equilibrium dissociation constant (Kd) at HIF-2α PAS-B is approximately 6000 nM. The compound also registered an IC50 in assay [1] of more than 30000 nM.

For `CNS(=O)(=O)c1c(Nc2cc(F)cc(Cl)c2)ccc2nonc12` [Compound 43], at HIF-2α PAS-B (read-out: ITC Kd), the equilibrium dissociation constant (Kd) amounted to 5000 nM.

As to `CN(C)S(=O)(=O)c1c(Nc2cc(F)cc(Cl)c2)ccc2nonc12` [Compound 44], the Kd on HIF-2α PAS-B (read-out: ITC Kd) was found to be 5000 nM.

The compound `Fc1cc(Br)cc([C@@H]2C[C@H](c3ccccc3)n3nnnc3N2)c1` [Compound 49, (5S,7R)-5-(3-bromo-5-fluorophenyl)-7-phenyl-4,5,6,7-tetrahydrotetrazolo[1,5-a]pyrimidine] yielded a Kd on HIF-2α PAS-B of 268 nM. Besides, the half-inhibitory concentration (IC50) in assay [1] stood at 350 nM.

The compound `Clc1ccccc1[C@H]1C[C@@H](c2cccc(Br)c2)Nc2nnnn21` [Compound 52, (5S,7R)-5-(3-bromophenyl)-7-(2-chlorophenyl)-4,5,6,7-tetrahydrotetrazolo[1,5-a]pyrimidine] came in with a Kd on HIF-2α PAS-B of 337 nM. The compound also returned a half-inhibitory concentration (IC50) in assay [1] of 300 nM.

For the compound `Clc1cccc([C@H]2C[C@@H](c3cccc(Br)c3)Nc3nnnn32)c1` [Compound 57], binding at HIF-2α PAS-B was put at a Kd of 133 nM. For the same compound, 150 nM corresponded to half-maximal inhibition in assay [1] (IC50).

`Brc1cccc([C@@H]2C[C@H](c3cccc(Br)c3)n3nnnc3N2)c1` [Compound 58, (5S,7R)-5,7-bis(3-bromophenyl)-4,5,6,7-tetrahydrotetrazolo[1,5-a]pyrimidine] had a Kd on HIF-2α PAS-B of 89 nM. Further, in assay [1], half-maximal inhibition (IC50) was put at 100 nM.

In turn, `Clc1ccc(Br)cc1[C@H]1C[C@@H](c2cccc(Br)c2)Nc2nnnn21` [Compound 60, (5S,7R)-7-(5-bromo-2-chlorophenyl)-5-(3-bromophenyl)-4,5,6,7-tetrahydrotetrazolo[1,5-a]pyrimidine] yielded a Kd at HIF-2α PAS-B of 192 nM. For the same compound, in assay [1], the 50% inhibitory concentration (IC50) amounted to 400 nM.

`Fc1ccc(Br)c(F)c1[C@H]1C[C@@H](c2cccc(Br)c2)Nc2nnnn21` [Compound 62, (5S,7R)-7-(3-bromo-2,6-difluorophenyl)-5-(3-bromophenyl)-4,5,6,7-tetrahydrotetrazolo[1,5-a]pyrimidine] displayed a Kd on HIF-2α PAS-B of 44 nM. Moreover, the IC50 in assay [1] was less than 100 nM.

`Fc1c(Br)ccc(Br)c1[C@H]1C[C@@H](c2cccc(Br)c2)Nc2nnnn21` [Compound 63, (5S,7R)-5-(3-bromophenyl)-7-(3,6-dibromo-2-fluorophenyl)-4,5,6,7-tetrahydrotetrazolo[1,5-a]pyrimidine] gave a Kd on HIF-2α PAS-B of 31 nM. The 50% inhibitory concentration (IC50) in assay [1] was less than 10 nM.
